Consider 36 compounds from patent US20220267298A1 (priority 2019, published 2022).

“And” between values parts separate entries of the source, which are not always exact repeats. Equal entries are not always repeated.

For this assay, the target named is T1, GRK2 (Homo sapiens, UniProt P25098).
T1 sequence (P25098 1-689): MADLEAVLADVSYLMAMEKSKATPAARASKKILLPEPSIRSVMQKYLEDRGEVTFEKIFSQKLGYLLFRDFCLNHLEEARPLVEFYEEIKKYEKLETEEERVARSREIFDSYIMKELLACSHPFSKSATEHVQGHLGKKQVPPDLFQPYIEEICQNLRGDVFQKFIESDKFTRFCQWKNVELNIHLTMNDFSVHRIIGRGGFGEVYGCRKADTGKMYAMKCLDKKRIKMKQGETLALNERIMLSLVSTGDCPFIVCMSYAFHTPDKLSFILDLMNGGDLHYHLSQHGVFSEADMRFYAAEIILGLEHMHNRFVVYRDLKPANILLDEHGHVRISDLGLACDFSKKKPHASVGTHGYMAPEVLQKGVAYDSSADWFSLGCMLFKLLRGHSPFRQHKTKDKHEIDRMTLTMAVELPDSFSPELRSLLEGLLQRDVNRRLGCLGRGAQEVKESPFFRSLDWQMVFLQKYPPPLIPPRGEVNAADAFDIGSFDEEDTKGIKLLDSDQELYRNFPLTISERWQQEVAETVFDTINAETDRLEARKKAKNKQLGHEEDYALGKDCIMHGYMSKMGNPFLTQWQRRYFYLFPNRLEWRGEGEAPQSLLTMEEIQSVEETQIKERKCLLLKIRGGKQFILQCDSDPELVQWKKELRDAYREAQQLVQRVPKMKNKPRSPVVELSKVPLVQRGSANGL
Description: biochemical. Conditions: GRK2 IC50 (μM), 10 nM GRK2; 10 uM ATP.
Description: Positive and negative control wells received an equal volume of DMSO. The final DMSO concentration in the assay is 1%.
The plate was placed in centrifuge equipped with a spin-bucket rotor and spun for 1 min at 1000 rpm.
GRK2 enzymatic reactions were initiated with the addition of 2 μL/well of 50 nM GRK2 in assay buffer. Plates were centrifuged for 1 min at 1000 rpm. For negative control wells, the order of reagent addition was reversed: 10 μL/well ADP detection mix (see below) was added first, followed by the addition of 2 μL/well of the GRK2 solution. Reaction mixtures were incubated at ambient temperature for 2 hours.
Following incubation, the reactions were quenched with 10 μL/well of the Transcreener ADP detection mix. […] The plates were then centrifuged for 1 min at 1000 rpm.
Fluorescence polarization values of the reaction mixtures were read on a Safire II plate reader after a 60 min incubation at ambient temperature. Excitation wavelength=590 nm; emission wavelength=650 nm.
The fluorescence polarization data were converted to % activity as follows:
% activity=(sample−NC)/(PC−NC)*100
where NC is the mean of negative control (ADP detection mix added prior to GRK2 addition), and PC is the mean of positive control (GRK2 reaction without inhibitor). IC50 values are determined from a 4-parameter fit, using the following equation:
Y=Bottom+(Top−Bottom)/(1+10^((Log IC50-X)*Hill slope)),
where X=log10 of the compound concentration.
As a reminder, the IC50 is the concentration at which inhibition is half-maximal. High values mean a need for much substance, low ones inhibition by little substance. For the compound `CCOc1cccc(C(CS(C)(=O)=O)n2cnc3ccc(-c4cn[nH]c4)cc3c2=O)c1` (stereo not drawn) [Compound 15, 3-(1-(3-Ethoxyphenyl)-2-(methylsulfonyl)ethyl)-6-(1H-pyrazol-4-yl)quinazolin-4(3H)-one], the IC50 came out at 5.59 µM.

In the case of `CC(c1cccc(OCCS(C)(=O)=O)c1)n1cnc2ccc(-c3cn[nH]c3)cc2c1=O` (stereo not drawn) [Compound 17, 3-(1-(3-(2-(Methylsulfonyl)ethoxy)phenyl)ethyl)-6-(1H-pyrazol-4-yl)quinazolin-4(3H)-one], inhibition was half-maximal at 1.31 µM (IC50). Against the preceding compound, the IC50 is about 4.3-fold lower.

`COc1cccc(C(C)n2cnc3ccc(-c4c[nH]nc4N)cc3c2=O)c1` (stereo not drawn) [Compound 19, 6-(3-Amino-1H-pyrazol-4-yl)-3-[1-(3-methoxyphenyl)ethyl]quinazolin-4-one]: the IC50 is > 50 µM.

As to `COc1cccc(Cn2c(C)nc3ccc(-c4cn[nH]c4)cc3c2=O)c1` [Compound 20, 3-[(3-Methoxyphenyl)methyl]-2-methyl-6-(1H-pyrazol-4-yl)quinazolin-4-one], the half-inhibitory concentration (IC50) was determined as 0.014 µM. This counts as double-digit nanomolar.

For the compound `COc1cccc(Cn2c(C(F)(F)F)nc3ccc(-c4cn[nH]c4)cc3c2=O)c1` [Compound 21, 3-[(3-Methoxyphenyl)methyl]-6-(1H-pyrazol-4-yl)-2-(trifluoromethyl)quinazolin-4-one], the 50% inhibitory concentration (IC50) turned out to be 0.425 µM. Against the preceding compound, the IC50 is about 30-fold higher.

The compound `COc1cccc(C(C2CCS(=O)(=O)CC2)n2cnc3ccc(-c4cn[nH]c4)cc3c2=O)c1` (stereo not drawn) [Compound 22, 3-((1,1-Dioxidotetrahydro-2H-thiopyran-4-yl)(3-methoxyphenyl)methyl)-6-(1H-pyrazol-4-yl)quinazolin-4(3H)-one] displayed a 50% inhibitory concentration (IC50) of 4.11 µM.

Consider `[2H]C([2H])(Oc1cccc([C@@H](C)n2cnc3ccc(-c4cn[nH]c4)cc3c2=O)c1)C(=O)NC1CC1` [Compound 23, N-Cyclopropyl-2,2-dideuterio-2-[3-[(1R)-1-[4-oxo-6-(1H-pyrazol-4-yl)quinazolin-3-yl]ethyl]phenoxy]acetamide], for which 0.035 µM corresponded to half-maximal inhibition (IC50).

The compound `CC(c1cccc(C(=O)NC2CN(C)C2)c1)n1cnc2ccc(-c3cn[nH]c3)cc2c1=O` (stereo not drawn) [Compound 24, N-(1-Methylazetidin-3-yl)-3-[1-[4-oxo-6-(1H-pyrazol-4-yl)quinazolin-3-yl]ethyl]benzamide] registered a half-maximal inhibitory concentration (IC50) of 0.096 µM.

Turning to `Cc1nc2ccc(-c3cn[nH]c3)cc2c(=O)n1Cc1cccc(OC2CN(C)C2)c1` [Compound 25, 2-Methyl-3-(3-((1-methylazetidin-3-yl)oxy)benzyl)-6-(1H-pyrazol-4-yl)quinazolin-4(3H)-one], the IC50 came out at 2.34 µM.

Compound `[2H]C([2H])(Oc1cccc([C@@H](C)n2cnc3ccc(-c4cn[nH]c4)cc3c2=O)c1)C(=O)O` [Compound 26, 2,2-Dideuterio-2-[3-[(1R)-1-[4-oxo-6-(1H-pyrazol-4-yl)quinazolin-3-yl]ethyl]phenoxy]acetic Acid] gave an IC50 of 0.143 µM.

With `O=C(O)COc1cccc(Cn2cnc3ccc(-c4cn[nH]c4)cc3c2=O)c1` [Compound 27, 2-[3-[[4-Oxo-6-(1H-pyrazol-4-yl)quinazolin-3-yl]methyl]phenoxy]acetic acid], the IC50 was 0.088 µM.

`O=c1c2cc(-c3cn[nH]c3)ccc2ncn1Cc1cccc(-c2ncco2)c1` [Compound 28, 3-(3-(Oxazol-2-yl)benzyl)-6-(1H-pyrazol-4-yl)quinazolin-4(3H)-one] came in with an IC50 of 0.446 µM.

`COc1cccc(C(CCN(C)C)n2cnc3ccc(-c4cn[nH]c4)cc3c2=O)c1` (stereo not drawn) [Compound 29, 3-(3-(Dimethylamino)-1-(3-methoxyphenyl)propyl)-6-(1H-pyrazol-4-yl)quinazolin-4(3H)-one] showed an IC50 of 0.054 µM.

Regarding `CC(c1cccc(O)c1)n1cnc2ccc(-c3cn[nH]c3)cc2c1=O` (stereo not drawn) [Compound 31, 3-[1-(3-Hydroxyphenyl)ethyl]-6-(1H-pyrazol-4-yl)quinazolin-4-one], the IC50 was 0.008 µM.

For the compound `COc1cccc(C(CCO)n2cnc3ccc(-c4cn[nH]c4)cc3c2=O)c1` (stereo not drawn) [Compound 32, 3-(3-Hydroxy-1-(3-methoxyphenyl)propyl)-6-(1H-pyrazol-4-yl)quinazolin-4(3H)-one], the IC50 is 0.157 µM.

In the case of `CC(c1cccc(NS(C)(=O)=O)c1)n1cnc2ccc(-c3cn[nH]c3)cc2c1=O` (stereo not drawn) [Compound 33, N-[3-[1-[4-Oxo-6-(1H-pyrazol-4-yl)quinazolin-3-yl]ethyl]phenyl]methanesulfonamide], the IC50 was determined as 0.033 µM.

As to `NS(=O)(=O)c1cccc(Cn2cnc3ccc(-c4cn[nH]c4)cc3c2=O)c1` [Compound 34, 3-[[4-Oxo-6-(1H-pyrazol-4-yl)quinazolin-3-yl]methyl]benzenesulfonamide], the IC50 was 0.03 µM. The IC50 values of the last two compounds are within 1.5-fold of each other.

For the compound `CCC(c1cccc(OC)c1)n1cnc2ccc(-c3cn[nH]c3)cc2c1=O` (stereo not drawn) [Compound 35, 3-[1-(3-Methoxyphenyl)propyl]-6-(1H-pyrazol-4-yl)quinazolin-4-one], half-maximal inhibition (IC50) required 0.122 µM.

Take `COc1cccc(Cn2cnc3ccc(-c4c[nH]nc4C)cc3c2=O)c1` [Compound 37, 3-[(3-Methoxyphenyl)methyl]-6-(3-methyl-1H-pyrazol-4-yl)quinazolin-4-one]: inhibition was half-maximal at 0.066 µM (IC50). Compared with the last compound, the IC50 is about 1.8-fold lower.

`COc1cccc(Cn2cnc3ccc(-n4cn[nH]c4=O)cc3c2=O)c1` [Compound 38, 3-[(3-Methoxyphenyl)methyl]-6-(5-oxo-1H-1,2,4-triazol-4-yl)quinazolin-4-one] came in with an IC50 of 0.129 µM.

For `COc1cccc([C@@H](C)n2cnc3ccc(-c4cn[nH]c4)cc3c2=O)c1` [Compound 39, 3-[(1R)-1-(3-Methoxyphenyl)ethyl]-6-(1H-pyrazol-4-yl)quinazolin-4-one], the half-maximal inhibitory concentration (IC50) is 0.009 µM and 0.017 µM.

`COc1ccc(F)cc1Cn1cnc2ccc(-c3cn[nH]c3)cc2c1=O` [Compound 40, 3-[(5-Fluoro-2-methoxy-phenyl)methyl]-6-(1H-pyrazol-4-yl)quinazolin-4-one] registered an IC50 of 1.72 µM. That is a single-digit micromolar value.

Compound `CC(=O)c1cccc(Cn2cnc3ccc(-c4cn[nH]c4)cc3c2=O)c1` [Compound 41, 3-[(3-Acetylphenyl)methyl]-6-(1H-pyrazol-4-yl)quinazolin-4-one] gave a concentration for half-maximal inhibition (IC50) of 0.065 µM.

The compound `COc1cccc(C(CO)n2cnc3ccc(-c4cn[nH]c4)cc3c2=O)c1` (stereo not drawn) [Compound 42, 3-[2-Hydroxy-1-(3-methoxyphenyl)ethyl]-6-(1H-pyrazol-4-yl)quinazolin-4-one] yielded a 50% inhibitory concentration (IC50) of 0.025 µM.

`COc1cccc(Cn2cnc3ccc(-c4c[nH]c5ncccc45)cc3c2=O)c1` [Compound 43, 3-[(3-Methoxyphenyl)methyl]-6-(1H-pyrrolo[2,3-b]pyridin-3-yl)quinazolin-4-one]: it took 0.757 µM to reach half-maximal inhibition (IC50).

`COc1cccc(Cn2cnc3ccc(-c4cn[nH]n4)cc3c2=O)c1` [Compound 44, 3-[(3-Methoxyphenyl)methyl]-6-(2H-triazol-4-yl)quinazolin-4-one] had an IC50 of 0.1 µM. Compared with the last compound, the IC50 is about 7.6-fold lower.

`COc1cccc(Cn2cnc3ccc(-c4ccnc(N)n4)cc3c2=O)c1` [Compound 45, 6-(2-Aminopyrimidin-4-yl)-3-[(3-methoxyphenyl)methyl]quinazolin-4-one] registered a concentration for half-maximal inhibition (IC50) of 0.271 µM.

Regarding `COc1cccc(Cn2cnc3ccc(-c4cn[nH]c(=O)c4)cc3c2=O)c1` [Compound 46, 3-[(3-Methoxyphenyl)methyl]-6-(6-oxo-1H-pyridazin-4-yl)quinazolin-4-one], the 50% inhibitory concentration (IC50) is 1.46 µM.

As to `COc1cccc(Cn2cnc3ccc(-c4nn[nH]n4)cc3c2=O)c1` [Compound 48, 3-[(3-Methoxyphenyl)methyl]-6-(2H-tetrazol-5-yl)quinazolin-4-one], the 50% inhibitory concentration (IC50) is > 50 µM.

Consider `O=c1c2cc(-c3cccnc3)ccc2ncn1Cc1cccc(Cl)c1` [Compound 49, 3-[(3-Chlorophenyl)methyl]-6-(3-pyridyl)quinazolin-4-one], for which the half-maximal inhibitory concentration (IC50) was > 50 µM.

Compound `O=c1c2cc(-c3cn[nH]c3)ccc2ncn1Cc1cccc(Cl)c1` [Compound 50, 3-[(3-Chlorophenyl)methyl]-6-(1H-pyrazol-4-yl)quinazolin-4-one] returned a half-inhibitory concentration (IC50) of 0.075 µM.

As for `COc1cccc(Cn2cnc3ccc(-c4cnc(N)nc4)cc3c2=O)c1` [Compound 52, 6-(2-Aminopyrimidin-5-yl)-3-(3-methoxybenzyl)quinazolin-4(3H)-one], the IC50 was > 19 µM.

As for `COc1cccc(Cn2cnc3ccc(-c4ccnc5[nH]ccc45)cc3c2=O)c1` [Compound 53, 3-[(3-Methoxyphenyl)methyl]-6-(1H-pyrrolo[2,3-b]pyridin-4-yl)quinazolin-4-one], half-maximal inhibition (IC50) required 2.45 µM. This counts as single-digit micromolar.

`COc1cc(Cn2cnc3ccc(-c4ccnc5[nH]ccc45)cc3c2=O)ccc1F` [Compound 54, 3-[(4-Fluoro-3-methoxy-phenyl)methyl]-6-(1H-pyrrolo[2,3-b]pyridin-4-yl)quinazolin-4-one] came in with a concentration for half-maximal inhibition (IC50) of 12.3 µM.

As to `NC1CCN(c2nc3ccc(-c4cn[nH]c4)cc3c(=O)n2Cc2cccc(C(=O)NCc3ccc(F)cc3)c2)C1` (stereo not drawn) [Compound 55, 3-[[2-(3-Aminopyrrolidin-1-yl)-4-oxo-6-(1H-pyrazol-4-yl)quinazolin-3-yl]methyl]-N-[(4-fluorophenyl)methyl]benzamide], inhibition was half-maximal at 0.014 µM (IC50).

In the case of `O=C(NCc1ccc(F)cc1)c1cccc(Cn2cnc3ccc(-c4cn[nH]c4)c(F)c3c2=O)c1` [Compound 57, 3-[[5-Fluoro-4-oxo-6-(1H-pyrazol-4-yl)quinazolin-3-yl]methyl]-N-[(4-fluorophenyl)methyl]benzamide], the IC50 was < 0.01 µM.
